Read-outs that look alike come from different tables or passages of the source.
How the values were obtained:
femoral artery [1] = assay: Action on blood flow volume in femoral artery; format: in vivo, rabbit (male New Zealand White)
Protocol: (§1) Male New Zealand White rabbits (body weight of 2.8 Kg to 3.5 Kg) were used and anesthetized with pentobarbital sodium. Blood flow volumes in the carotid artery and femoral artery were measured and recorded via a non-blood observing type of a probe for measuring blood flow volume. Also, blood pressure in femoral artery was simultaneously measured and recorded with measurement of blood flow.
(§2) The compound of this invention was dissolved in an aqueous solution containing 1% tartaric acid and 1% dimethylacetamide, while papaverine hydrochloride dissolved in 0.9% physiological saline. These test compounds were intravenously given through a residual polyethylene tube within femoral vein.

blood platelets = assay: Activity to inhibit the aggregation of blood platelets (collagen, ex vivo after oral administration); format: in vivo, rat (male Wistar-ST strain); conditions: Rattus norvegicus, Platelet
Protocol: Male Wistar-ST strain rats of an average body weight of 250 g were used, a group consisting of 8 animals. The test compound indicated in the following Table 1 was orally administered to rats in the form of a suspension in a 1% tragacanth aqueous solution at 4 ml/Kg (the test compound 10 mg/Kg).
One hour after the administration, blood samples were obtained from the carotid artery by means of a cannule. […] Tubes were turned upside-down and then subjected to centrifugation at 200×g over 15 minutes to assign the supernatant as a platelet-rich plasma (PRP). The residue was further centrifuged at […] over 15 minutes to assign the supernatant as a platelet-poor plasma (PPP). These supernatants were applied for determining the ability to aggregate blood platelets. […] As an aggregation inducing agent, collagen (availale from Hormon-chemie A.G.) was used at a concentration of 7 to 10 μg/ml.
Inhibitory rate to aggregate blood platelets was calculated according to the following equation: [formula] A: […] in the group to which the 1% tragacanth solution alone was given (Control)
B: Aggregation rate in the group to which the tragacanth solution of the test compound was given.

mice = assay: Anti-thrombotic activity: arachidonic acid-induced mortality in mice; format: in vivo, mouse (male ICR-JCL strain); conditions: for Survival time of dead mice: arachidonic acid 100 mg/Kg i.v.; for Mortality: arachidonic acid 100 mg/Kg i.v. after 1 hour
Protocol: (§3) Male ICR-JCL strain mice with an average body weight of about 25 g and male New Zealand White rabbits with an average body weight of about 3 Kg were used.
Where mice were used as experimental animals, a suspension of the test compound indicated in Table 3 in a 1% tragacanth aqueous solution was orally administered to animals at 20 ml/Kg. One hour after the administration, an arachidonic acid (PL-biochemical Co., Inc.) solution dissolved in a 0.1M sodium carbonate aqueous solution was intravenously given at 100 mg/Kg. Evaluation of activity was effected with the time from the administration of arachidonic acid up to the death of animals as well as mortality.

[2] = system: PGI2-like substance in vessel walls; assay: Influence on production of PGI2-like substance in vessel walls (ADP aggregation with carotid artery ring); format: in vivo, rat (male Wistar-ST strain); conditions: 1 hour, 10 μM ADP
Protocol: Male Wistar-ST strain rats with an average weight of about 250 g were used as experimental animals. After fasted for 18 hours, 6.3 ml of blood sample were obtained from corotid artery and immediately thereafter 0.7 ml of an anticoagulant (3.8% sodium citrate) was added and the sample was centrifuged at 200×g over 15 minutes to take platelet-rich plasma (PRP). The same procedures as above were carried out, using 5 to 6 rats, whereby 5-6 ml as normal PRP were stored and employed.
Reference aggregation values were determined by pouring 1 ml each of stored PRP into plastic test tubes, incubating them at 22° C. for 10 minutes and then determining aggregation rate. As an aggregation inducing agent, one employed 10 μM ADP (available from Sigma Co., Inc.)
A suspension of the compound of this invention or aspirin in a 1% aqueous solution of tragacanth was orally given to animals. After 1 hour, 5 mg of carotid artery were cut out in a ring shape and placed into a plastic test tube together with 1 ml of stored PRP. After incubated at 22° C. for 10 minutes, aggregation rate was determined.
Also, non-medicated groups were similarly treated and aggregation rate was determined.
Determination of blood platelet aggregation rate was made by means of an aggregometer.

femoral artery [3] = assay: Action on blood pressure in femoral artery; format: in vivo, rabbit (male New Zealand White)
Protocol: as §1, §2

rabbits = assay: Anti-thrombotic activity: arachidonic acid-induced mortality in rabbits; format: in vivo, rabbit (male New Zealand White)
Protocol: as §3
Where rabbits were used as experimental animals, a suspension of the test compound in a 1% tragacanth aqueous solution was orally administered to animals at 5 ml/Kg. Two hours after the administration, an arachidonic acid solution dissolved in a 0.1M potassium carbonate solution was injected into pinna vein at 1.4 mg/Kg.
Evaluation of activity was effected with mortality at the time when arachidonic acid given. If survived at the first administration of arachidonic acid, arachidonic acid was administered after 6 hours, 24 hours, 48 hours and 72 hours from the administration of the test compound, respectively, and mortality was determined in respective cases.

With `CC(C)(C)CNc1nnc(-c2ccccc2)c2ccccc12` [Compound 1, 1-neopentylamino-4-phenylphthalazine] the “Blood flow volume in femoral artery, A: Before administration” value (from here on “Blood flow volume … Before administration”) (femoral artery [1]; 0.01 mg/Kg i.v.) was 19.0 mL/min, the “Blood flow volume in femoral artery, B: After administration” value (“Blood flow volume in femoral artery, B” for short) (femoral artery [1]; 0.01 mg/Kg i.v.) was 22.1 mL/min and the “Blood flow volume in femoral artery, C: Increase degree” value (“Blood flow volume … Increase degree” below) (femoral artery [1]; 0.01 mg/kg i.v.) was 3.1 mL/min. The “Blood flow volume in femoral artery, D: Increase rate” value (from here on “Blood flow volume … Increase rate”) (femoral artery [1]; 0.01 mg/kg i.v.) was 9.9%, the “Blood flow volume … Before administration” value (femoral artery [1]; 0.05 mg/Kg i.v.) was 18.5 mL/min and the “Blood flow volume in femoral artery, B” value (femoral artery [1]; 0.05 mg/Kg i.v.) was 24.3 mL/min. For the same compound, the “Blood flow volume … Increase degree” value (femoral artery [1]; 0.05 mg/kg i.v.) was 5.8 mL/min, the “Blood flow volume … Increase rate” value (femoral artery [1]; 0.05 mg/kg i.v.) was 28.2% and the “Blood flow volume … Before administration” value (femoral artery [1]; 0.1 mg/Kg i.v.) was 18.5 mL/min. The “Blood flow volume in femoral artery, B” value (femoral artery [1]; 0.1 mg/Kg i.v.) was 27.8 mL/min, the “Blood flow volume … Increase degree” value (femoral artery [1]; 0.1 mg/kg i.v.) was 9.3 mL/min and the “Blood flow volume … Increase rate” value (femoral artery [1]; 0.1 mg/kg i.v.) was 65.2%. For the same compound, the “Blood flow volume … Before administration” value (femoral artery [1]; 0.5 mg/Kg i.v.) was 19.5 mL/min, the “Blood flow volume in femoral artery, B” value (femoral artery [1]; 0.5 mg/Kg i.v.) was 28.2 mL/min and the “Blood flow volume … Increase degree” value (femoral artery [1]; 0.5 mg/kg i.v.) was 8.7 mL/min. For the same compound, the “Blood flow volume … Increase rate” value (femoral artery [1]; 0.5 mg/kg i.v.) was 55.3%, the inhibition at 3 mg/kg (blood platelets; 3 mg/Kg oral (Table 5), read-out: Inhibitory rate of blood platelet aggregation) was 48.1% and the inhibition at 10 mg/kg (blood platelets; 10 mg/Kg oral (Table 5), read-out: Inhibitory rate of blood platelet aggregation) was 100%. The inhibition at 10 mg/kg (blood platelets; 10 mg/Kg oral, 1 hour after administration, collagen 7 to 10 μg/ml, read-out: Inhibitory rate (blood platelet aggregation)) was 100%, the inhibition at 30 mg/kg (blood platelets; 30 mg/Kg oral (Table 5), read-out: Inhibitory rate of blood platelet aggregation) was 100% and the “Survival time of dead mice” value (mice; 30 mg/Kg oral) was 101 ± 11 s. The Mortality (mice; 30 mg/Kg oral) was 75%, the “Survival time of dead mice” value (mice; 100 mg/Kg oral) was 108 ± 11 s and the Mortality (mice; 100 mg/Kg oral) was 75%. The Mortality (mice; 300 mg/Kg oral) was 0%, the “Aggregation rate with ADP when carotid artery ring added” value (“Aggregation rate with ADP” for short) ([2]; 3 mg/Kg oral) was 2.7% and the “Aggregation rate with ADP” value ([2]; 10 mg/Kg oral) was 17.7%. The “Aggregation rate with ADP” value ([2]; 30 mg/Kg oral) was 10.0%, the “Blood pressure in femoral artery, A: Before administration” value (“Blood pressure … Before administration” below) (femoral artery [3]; 0.01 mg/kg i.v.) was 96.0 mmHg and the “Blood pressure in femoral artery, B: After administration” value (“Blood pressure in femoral artery, B” for short) (femoral artery [3]; 0.01 mg/kg i.v.) was 92.3 mmHg. For the same compound, the “Blood pressure in femoral artery, E: Lowering degree” value (“Blood pressure … Lowering degree” for short) (femoral artery [3]; 0.01 mg/kg i.v.) was 3.7 mmHg, the “Blood pressure in femoral artery, F: Lowering rate” value (“Blood pressure … Lowering rate” below) (femoral artery [3]; 0.01 mg/kg i.v.) was 3.8% and the “Blood pressure … Before administration” value (femoral artery [3]; 0.05 mg/kg i.v.) was 91.7 mmHg. For the same compound, the “Blood pressure in femoral artery, B” value (femoral artery [3]; 0.05 mg/kg i.v.) was 81.7 mmHg, the “Blood pressure … Lowering degree” value (femoral artery [3]; 0.05 mg/kg i.v.) was 10.0 mmHg and the “Blood pressure … Lowering rate” value (femoral artery [3]; 0.05 mg/kg i.v.) was 10.9%. For the same compound, the “Blood pressure … Before administration” value (femoral artery [3]; 0.1 mg/kg i.v.) was 90.0 mmHg, the “Blood pressure in femoral artery, B” value (femoral artery [3]; 0.1 mg/kg i.v.) was 81.7 mmHg and the “Blood pressure … Lowering degree” value (femoral artery [3]; 0.1 mg/kg i.v.) was 8.3 mmHg. For the same compound, the “Blood pressure … Lowering rate” value (femoral artery [3]; 0.1 mg/kg i.v.) was 8.8%, the “Blood pressure … Before administration” value (femoral artery [3]; 0.5 mg/kg i.v.) was 86.7 mmHg and the “Blood pressure in femoral artery, B” value (femoral artery [3]; 0.5 mg/kg i.v.) was 63.2 mmHg. For the same compound, the “Blood pressure … Lowering degree” value (femoral artery [3]; 0.5 mg/kg i.v.) was 23.5 mmHg, the “Blood pressure … Lowering rate” value (femoral artery [3]; 0.5 mg/kg i.v.) was 30.1% and the “Mortality (number of rabbits)” value (rabbits; 10 mg/Kg oral, 2 hrs. after administration, of 4 rabbits) was 1. The “Mortality (number of rabbits)” value (rabbits; 10 mg/Kg oral, 6 hrs. after administration, of 4 rabbits) was 2, the “Mortality (number of rabbits)” value (rabbits; 10 mg/Kg oral, 24 hrs. after administration, of 4 rabbits) was 1 and the “Mortality (number of rabbits)” value (rabbits; 30 mg/Kg oral, 24 hrs. after administration, of 8 (Compound 1) or 4 rabbits) was 3. The “Mortality (number of rabbits)” value (rabbits; 30 mg/Kg oral, 48 hrs. after administration, of 8 (Compound 1) or 4 rabbits) was 1 and the “Mortality (number of rabbits)” value (rabbits; 30 mg/Kg oral, 72 hrs. after administration, of 8 rabbits) was 4.
